Test systems include RXF 393 renal; SK-MEL-28 melanoma; 786-0 renal; MALME-3M melanoma; SN12C renal; A498 renal; SF-268 CNS; UACC-257 melanoma; IGROV1 ovarian; A549 NSCLC; SNB-19 CNS; OVCAR-8 ovarian; COLO 205 colon; OVCAR-5 ovarian; SNB-75 CNS; HOP-92 NSCLC; HCT-15 colon.
What all share (assay): NCI anticancer screen, dose series, 48 h

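Compound exposure: 48 hours, 5 concentrations, 96-well plates. Definition used: TGI = concentration required for complete inhibition of growth.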

For the compound `COC(=O)c1ccccc1NC(=O)C(=O)CC(=O)CC(c1ccccc1)c1c(O)c2ccccc2oc1=O` (stereo not given), the TGI with RXF 393 renal, in the experiment on SK-MEL-28 melanoma, in the experiment with 786-0 renal, in the experiment on MALME-3M melanoma, in the experiment with SN12C renal and in the experiment with A498 renal was more than 100 µM in each case. Moreover, the TGI in the experiment with SF-268 CNS, in the experiment on UACC-257 melanoma, in the experiment with IGROV1 ovarian, in the experiment with A549 NSCLC, in the experiment on SNB-19 CNS and with OVCAR-8 ovarian was more than 100 µM each time. The TGI in the experiment with COLO 205 colon and in the experiment on OVCAR-5 ovarian was more than 100 µM in each case.
As for `CSc1nc2c(c(O)c(C)c(=O)n2C2OCC(OC(C)=O)C(OC(C)=O)C2OC(C)=O)c(=O)n1C` (stereo not given), the TGI with SK-MEL-28 melanoma, with 786-0 renal, in the experiment on MALME-3M melanoma, in the experiment on SNB-75 CNS, with SN12C renal and in the experiment on HOP-92 NSCLC was more than 100 µM throughout. Besides, the TGI with HCT-15 colon, in the experiment with A498 renal, in the experiment on SF-268 CNS, in the experiment with UACC-257 melanoma, in the experiment on IGROV1 ovarian and with A549 NSCLC was more than 100 µM each time. For the same compound, the TGI with SNB-19 CNS, with OVCAR-8 ovarian, in the experiment with COLO 205 colon and in the experiment with OVCAR-5 ovarian was more than 100 µM each time.
For `Cc1cc(N(CCC#N)CCC#N)ccc1N=Nc1cccc(Cl)c1`, the TGI with RXF 393 renal, in the experiment with SK-MEL-28 melanoma, in the experiment with 786-0 renal, in the experiment on MALME-3M melanoma, in the experiment on SN12C renal and in the experiment with HOP-92 NSCLC was more than 100 µM each time. The TGI in the experiment with A498 renal, with UACC-257 melanoma, with A549 NSCLC, with SNB-19 CNS, in the experiment on OVCAR-8 ovarian and with COLO 205 colon was more than 100 µM each time. In the experiment on OVCAR-5 ovarian, this compound registered a TGI of more than 100 µM.
Consider `CC(C)(Oc1ccc2c(=O)cc(-c3ccccc3)oc2c1)C(=O)Nc1c(Cl)cccc1Cl`, for which the TGI was 30.2 µM in the experiment on RXF 393 renal; more than 100 µM with SK-MEL-28 melanoma; more than 100 µM in the experiment with 786-0 renal; more than 100 µM with MALME-3M melanoma; more than 100 µM with HOP-92 NSCLC; more than 100 µM with HCT-15 colon. The TGI in the experiment with A498 renal, in the experiment with SF-268 CNS, in the experiment on UACC-257 melanoma, in the experiment with IGROV1 ovarian, with A549 NSCLC and with SNB-19 CNS was more than 100 µM in each case. Besides, the TGI in the experiment on OVCAR-8 ovarian and with OVCAR-5 ovarian was more than 100 µM in each case.
On to `COc1ccc(N2C(=O)[C@@H]3[C@H](C2=O)c2[nH]c4ccccc4c2C2CCC(C(C)(C)C)C[C@@H]23)cc1` (stereo not given in full), for which the TGI with RXF 393 renal was 46 µM; with SK-MEL-28 melanoma, more than 100 µM; in the experiment on 786-0 renal it was 31.1 µM; in the experiment with MALME-3M melanoma, more than 85 µM; in the experiment on SNB-75 CNS, 38 µM; with SN12C renal, 37.5 µM. For the same compound, the TGI in the experiment on HCT-15 colon was more than 100 µM; in the experiment with A498 renal, 64 µM; in the experiment with SF-268 CNS, more than 100 µM; with UACC-257 melanoma, more than 100 µM; in the experiment with IGROV1 ovarian, more than 100 µM; in the experiment on A549 NSCLC it was more than 80.3 µM. Further, the TGI was more than 61.4 µM with SNB-19 CNS, 42.2 µM in the experiment on OVCAR-8 ovarian, more than 84.2 µM in the experiment with COLO 205 colon and more than 100 µM with OVCAR-5 ovarian.
Consider `CC1C=C[C@H](Sc2ccccc2)CC[C@@]1(C)O` (stereo not given in full), for which the TGI in the experiment on RXF 393 renal, in the experiment on SK-MEL-28 melanoma, in the experiment with 786-0 renal, with MALME-3M melanoma, with SNB-75 CNS and in the experiment on SN12C renal was more than 100 µM in each case. Moreover, the TGI in the experiment on HOP-92 NSCLC, with HCT-15 colon, with A498 renal, with UACC-257 melanoma, in the experiment on IGROV1 ovarian and in the experiment with A549 NSCLC was more than 100 µM each time. Moreover, the TGI in the experiment with SNB-19 CNS, with OVCAR-8 ovarian, in the experiment with COLO 205 colon and with OVCAR-5 ovarian was more than 100 µM throughout.
As to `CCCCNC(=O)CCN(C(=O)O)S(=O)(=O)c1ccc(NC(=O)c2ccccc2)cc1`, the TGI in the experiment on SK-MEL-28 melanoma is more than 100 µM; in the experiment with 786-0 renal, 29.7 µM; with MALME-3M melanoma, more than 100 µM; in the experiment with SNB-75 CNS, more than 100 µM; in the experiment on SN12C renal it was more than 100 µM; in the experiment on HOP-92 NSCLC, more than 100 µM. The TGI in the experiment with HCT-15 colon, in the experiment with A498 renal, with SF-268 CNS, in the experiment with UACC-257 melanoma, in the experiment with IGROV1 ovarian and in the experiment with A549 NSCLC was more than 100 µM each time. Further, the TGI in the experiment on SNB-19 CNS, in the experiment on OVCAR-8 ovarian, in the experiment on COLO 205 colon and in the experiment with OVCAR-5 ovarian was more than 100 µM each time.
Regarding `CCc1cccc(CC)c1NC(=O)C1=C(C)NC(C)=C(C(=O)Nc2c(CC)cccc2CC)C1c1ccc2c(c1)OCO2`, the TGI in the experiment with SK-MEL-28 melanoma was determined as 35 µM; with 786-0 renal, 29.9 µM; in the experiment with MALME-3M melanoma it was 29.7 µM; in the experiment on SNB-75 CNS, 38.1 µM; with SN12C renal, 28.7 µM; with HOP-92 NSCLC it was 32.1 µM. Also, the TGI with HCT-15 colon turned out to be 26.8 µM; in the experiment with A498 renal, 38.9 µM; with SF-268 CNS, 35.9 µM; with UACC-257 melanoma, 35.1 µM; with IGROV1 ovarian, 44.2 µM; in the experiment on A549 NSCLC, 66.5 µM. The TGI with SNB-19 CNS came out at 33 µM; with OVCAR-8 ovarian, 34.7 µM; with COLO 205 colon, 26.2 µM; in the experiment on OVCAR-5 ovarian, 31.7 µM.
As to `CC(=O)NC(CCCNC(=O)NCCCl)C(=O)NCc1ccccc1` (stereo not given), the TGI with RXF 393 renal, in the experiment with SK-MEL-28 melanoma, in the experiment with 786-0 renal, in the experiment on MALME-3M melanoma, in the experiment on SNB-75 CNS and in the experiment on SN12C renal was more than 100 µM throughout. For the same compound, the TGI in the experiment with HOP-92 NSCLC, in the experiment with HCT-15 colon, in the experiment with SF-268 CNS, in the experiment on UACC-257 melanoma, in the experiment with A549 NSCLC and in the experiment with SNB-19 CNS was more than 100 µM each time. Besides, the TGI with OVCAR-8 ovarian and in the experiment with COLO 205 colon was more than 100 µM each time.
